Laboratory results taken from the kinase profiling compilation of Christmann-Franck et al. (2016).

Legend:
Assay in all cases: radiometric filter-binding kinase assay, Kinase HotSpot
Details in all cases: compound 0.5 µM; ATP 10 µM
[1] = biological target: CSNK1G2 (human) (UniProt P78368)
[2] = biological target: DAPK2 (human) (UniProt Q9UIK4)
[3] = biological target: EPHA3 (human) (UniProt P29320)
[4] = biological target: TGFBR1 (human) (UniProt P36897)
[5] = biological target: MARK4 (human) (UniProt Q96L34)
[6] = biological target: INSRR (human) (UniProt P14616)
[7] = biological target: NEK6 (human) (UniProt Q9HC98)
[8] = biological target: ULK1 (human) (UniProt O75385)
[9] = biological target: KDR (human) (UniProt P35968)
[10] = biological target: ROCK2 (human) (UniProt O75116)
[11] = biological target: CLK4 (human) (UniProt Q9HAZ1)
[12] = biological target: CAMK2G (human) (UniProt Q13555)
[13] = biological target: MELK (human) (UniProt Q14680)
[14] = biological target: HIPK1 (human) (UniProt Q86Z02)
[15] = biological target: PAK3 (human) (UniProt O75914)
[16] = biological target: CDC42BPA (human) (UniProt Q5VT25)
[17] = biological target: HIPK3 (human) (UniProt Q9H422)
[18] = biological target: TNK2 (human) (UniProt Q07912)
[19] = biological target: MYLK2 (human) (UniProt Q9H1R3)
[20] = biological target: ACVR1 (human) (UniProt Q04771)
[21] = biological target: PKN1 (human) (UniProt Q16512)
[22] = biological target: PDGFRB (human) (UniProt P09619)
[23] = biological target: AURKC (human) (UniProt Q9UQB9)
[24] = biological target: MAPK3 (human) (UniProt P27361)
[25] = biological target: INSR (human) (UniProt P06213)
[26] = biological target: CDK2 CCNA2 (human) (UniProt P24941+P20248)
[27] = biological target: CHEK2 (human) (UniProt O96017)
[28] = biological target: HIPK2 (human) (UniProt Q9H2X6)
[29] = biological target: RPS6KA6 KD1 KD2 (human) (UniProt Q9UK32)
[30] = biological target: MKNK2 (human) (UniProt Q9HBH9)
[31] = biological target: TEK (human) (UniProt Q02763)
[32] = biological target: STK39 (human) (UniProt Q9UEW8)
[33] = biological target: LRRK2 (human) (UniProt Q5S007)
[34] = biological target: CDK2 CCNE1 (human) (UniProt P24941+P24864)
[35] = biological target: FGFR4 (human) (UniProt P22455)
[36] = biological target: MAP3K5 (human) (UniProt Q99683)
[37] = biological target: FES (human) (UniProt P07332)

Chain of MARK4 (human) (Q96L34 whole entry, looked up): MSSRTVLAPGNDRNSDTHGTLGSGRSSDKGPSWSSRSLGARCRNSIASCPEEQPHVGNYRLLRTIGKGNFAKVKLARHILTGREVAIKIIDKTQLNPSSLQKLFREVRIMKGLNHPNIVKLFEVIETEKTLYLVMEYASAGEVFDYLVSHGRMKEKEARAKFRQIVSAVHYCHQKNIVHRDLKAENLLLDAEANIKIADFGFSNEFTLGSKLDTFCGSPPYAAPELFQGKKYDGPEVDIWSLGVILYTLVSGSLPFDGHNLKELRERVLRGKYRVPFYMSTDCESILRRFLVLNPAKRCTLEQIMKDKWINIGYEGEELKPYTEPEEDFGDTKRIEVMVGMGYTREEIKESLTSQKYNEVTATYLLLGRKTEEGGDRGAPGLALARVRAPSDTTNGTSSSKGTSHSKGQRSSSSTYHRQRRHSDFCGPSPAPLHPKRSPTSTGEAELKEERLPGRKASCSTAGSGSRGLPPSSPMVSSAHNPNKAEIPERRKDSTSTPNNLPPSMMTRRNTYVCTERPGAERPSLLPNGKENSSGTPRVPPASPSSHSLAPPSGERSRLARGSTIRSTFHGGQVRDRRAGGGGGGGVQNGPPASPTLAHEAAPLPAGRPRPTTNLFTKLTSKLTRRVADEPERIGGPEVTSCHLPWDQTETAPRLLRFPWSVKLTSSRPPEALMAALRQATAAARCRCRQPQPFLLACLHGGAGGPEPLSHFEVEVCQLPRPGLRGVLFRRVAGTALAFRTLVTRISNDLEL
Chain of ULK1 (human) (O75385 whole entry, looked up): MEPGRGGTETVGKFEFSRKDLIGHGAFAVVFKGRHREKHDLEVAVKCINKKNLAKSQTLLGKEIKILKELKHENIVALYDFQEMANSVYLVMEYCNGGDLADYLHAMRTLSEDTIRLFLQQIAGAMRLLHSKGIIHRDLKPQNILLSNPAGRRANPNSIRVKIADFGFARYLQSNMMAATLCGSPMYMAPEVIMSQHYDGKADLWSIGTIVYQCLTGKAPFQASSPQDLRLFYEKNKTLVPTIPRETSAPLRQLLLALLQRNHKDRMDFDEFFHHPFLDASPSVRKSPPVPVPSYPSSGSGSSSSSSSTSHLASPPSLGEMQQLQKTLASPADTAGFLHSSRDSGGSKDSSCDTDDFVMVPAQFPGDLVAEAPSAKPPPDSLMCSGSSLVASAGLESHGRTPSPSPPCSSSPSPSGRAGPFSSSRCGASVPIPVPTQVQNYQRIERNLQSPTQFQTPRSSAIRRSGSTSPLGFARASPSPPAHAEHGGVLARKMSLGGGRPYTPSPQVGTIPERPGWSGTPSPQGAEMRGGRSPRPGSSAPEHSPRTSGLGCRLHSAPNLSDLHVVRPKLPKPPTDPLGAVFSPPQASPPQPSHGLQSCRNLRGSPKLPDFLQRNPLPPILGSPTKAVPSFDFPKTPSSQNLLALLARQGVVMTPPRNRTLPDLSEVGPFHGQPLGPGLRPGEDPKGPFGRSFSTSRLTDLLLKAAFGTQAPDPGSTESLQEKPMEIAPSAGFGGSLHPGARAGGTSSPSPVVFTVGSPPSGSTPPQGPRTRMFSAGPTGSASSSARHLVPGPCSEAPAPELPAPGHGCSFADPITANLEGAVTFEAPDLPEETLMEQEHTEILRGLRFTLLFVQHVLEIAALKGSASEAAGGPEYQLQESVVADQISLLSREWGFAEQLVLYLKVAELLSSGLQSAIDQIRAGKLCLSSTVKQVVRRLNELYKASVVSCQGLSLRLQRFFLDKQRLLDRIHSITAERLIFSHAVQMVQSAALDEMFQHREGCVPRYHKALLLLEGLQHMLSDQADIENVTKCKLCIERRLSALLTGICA
Chain of EPHA3 (human) (P29320 whole entry, looked up): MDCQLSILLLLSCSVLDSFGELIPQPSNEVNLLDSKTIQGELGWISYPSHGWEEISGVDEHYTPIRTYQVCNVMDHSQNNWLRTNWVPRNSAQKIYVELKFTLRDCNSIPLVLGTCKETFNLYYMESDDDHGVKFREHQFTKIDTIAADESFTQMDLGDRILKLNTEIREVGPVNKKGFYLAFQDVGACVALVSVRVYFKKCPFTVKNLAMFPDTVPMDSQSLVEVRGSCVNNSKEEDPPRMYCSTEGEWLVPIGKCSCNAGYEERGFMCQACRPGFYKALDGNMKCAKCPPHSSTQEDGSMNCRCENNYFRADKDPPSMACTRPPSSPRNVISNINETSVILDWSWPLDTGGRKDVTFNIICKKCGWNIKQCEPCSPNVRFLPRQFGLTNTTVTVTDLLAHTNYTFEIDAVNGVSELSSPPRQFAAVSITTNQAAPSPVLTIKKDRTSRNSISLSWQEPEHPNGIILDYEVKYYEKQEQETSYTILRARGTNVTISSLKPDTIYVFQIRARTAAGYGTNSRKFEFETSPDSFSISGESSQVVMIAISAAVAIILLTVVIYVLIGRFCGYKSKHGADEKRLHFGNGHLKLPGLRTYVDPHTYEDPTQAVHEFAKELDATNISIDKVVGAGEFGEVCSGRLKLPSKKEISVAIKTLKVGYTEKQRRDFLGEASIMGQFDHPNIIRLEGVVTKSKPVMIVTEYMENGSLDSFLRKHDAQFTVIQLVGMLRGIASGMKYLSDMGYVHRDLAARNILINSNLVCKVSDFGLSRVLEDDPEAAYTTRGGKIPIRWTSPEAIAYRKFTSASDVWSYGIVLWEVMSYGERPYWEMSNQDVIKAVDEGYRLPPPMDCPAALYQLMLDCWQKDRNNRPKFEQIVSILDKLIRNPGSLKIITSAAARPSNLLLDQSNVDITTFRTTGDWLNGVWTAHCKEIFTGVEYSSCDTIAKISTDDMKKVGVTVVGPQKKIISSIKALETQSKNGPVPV
Chain of KDR (human) (P35968 whole entry, looked up): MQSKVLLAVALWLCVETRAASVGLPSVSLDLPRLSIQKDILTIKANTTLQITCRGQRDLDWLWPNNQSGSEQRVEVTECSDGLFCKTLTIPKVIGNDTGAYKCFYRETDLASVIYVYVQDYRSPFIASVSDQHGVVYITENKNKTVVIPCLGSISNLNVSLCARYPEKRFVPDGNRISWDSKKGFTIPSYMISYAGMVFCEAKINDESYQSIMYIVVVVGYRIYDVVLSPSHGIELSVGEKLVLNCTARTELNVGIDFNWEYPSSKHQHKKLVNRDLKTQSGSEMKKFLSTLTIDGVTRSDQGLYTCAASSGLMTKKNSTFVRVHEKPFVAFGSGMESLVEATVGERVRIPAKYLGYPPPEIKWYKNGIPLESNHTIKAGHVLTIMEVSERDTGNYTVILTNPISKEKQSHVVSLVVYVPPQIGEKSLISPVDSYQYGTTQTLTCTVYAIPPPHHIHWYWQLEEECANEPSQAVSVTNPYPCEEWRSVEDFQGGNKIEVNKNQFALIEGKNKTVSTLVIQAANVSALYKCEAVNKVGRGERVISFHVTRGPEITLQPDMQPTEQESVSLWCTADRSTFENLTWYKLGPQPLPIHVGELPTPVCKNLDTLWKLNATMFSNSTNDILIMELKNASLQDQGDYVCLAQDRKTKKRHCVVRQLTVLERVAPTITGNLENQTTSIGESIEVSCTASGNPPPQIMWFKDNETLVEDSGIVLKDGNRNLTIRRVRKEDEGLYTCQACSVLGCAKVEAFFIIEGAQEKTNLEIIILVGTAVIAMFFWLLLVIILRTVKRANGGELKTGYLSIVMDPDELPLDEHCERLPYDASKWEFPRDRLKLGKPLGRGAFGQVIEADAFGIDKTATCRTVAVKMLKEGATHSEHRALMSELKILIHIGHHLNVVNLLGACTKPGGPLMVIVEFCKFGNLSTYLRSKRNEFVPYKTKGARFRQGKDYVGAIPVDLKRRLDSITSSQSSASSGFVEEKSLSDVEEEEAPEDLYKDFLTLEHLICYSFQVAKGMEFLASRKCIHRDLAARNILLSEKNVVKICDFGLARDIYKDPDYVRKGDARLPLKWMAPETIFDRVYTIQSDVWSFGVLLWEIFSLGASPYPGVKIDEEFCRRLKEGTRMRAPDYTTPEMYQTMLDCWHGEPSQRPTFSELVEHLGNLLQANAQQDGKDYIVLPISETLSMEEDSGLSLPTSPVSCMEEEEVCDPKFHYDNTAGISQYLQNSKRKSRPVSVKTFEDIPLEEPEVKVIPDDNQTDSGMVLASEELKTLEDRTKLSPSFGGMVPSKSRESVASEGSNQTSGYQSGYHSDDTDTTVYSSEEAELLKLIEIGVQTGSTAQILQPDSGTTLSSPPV
Chain of CDK2 CCNA2 (human) (P20248 whole entry, looked up, other chains not shown): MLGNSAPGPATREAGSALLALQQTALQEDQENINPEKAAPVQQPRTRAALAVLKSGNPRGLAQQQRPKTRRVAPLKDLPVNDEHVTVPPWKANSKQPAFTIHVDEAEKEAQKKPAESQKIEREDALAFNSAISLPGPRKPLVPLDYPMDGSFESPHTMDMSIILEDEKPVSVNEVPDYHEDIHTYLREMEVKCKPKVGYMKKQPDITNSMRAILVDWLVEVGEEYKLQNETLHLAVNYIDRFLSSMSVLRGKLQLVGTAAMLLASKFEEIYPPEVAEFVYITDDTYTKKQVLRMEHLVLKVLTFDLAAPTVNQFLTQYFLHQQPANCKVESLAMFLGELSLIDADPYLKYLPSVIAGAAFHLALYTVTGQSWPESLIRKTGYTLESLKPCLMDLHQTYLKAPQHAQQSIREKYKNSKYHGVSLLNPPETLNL
Chain of DAPK2 (human) (Q9UIK4 whole entry, looked up): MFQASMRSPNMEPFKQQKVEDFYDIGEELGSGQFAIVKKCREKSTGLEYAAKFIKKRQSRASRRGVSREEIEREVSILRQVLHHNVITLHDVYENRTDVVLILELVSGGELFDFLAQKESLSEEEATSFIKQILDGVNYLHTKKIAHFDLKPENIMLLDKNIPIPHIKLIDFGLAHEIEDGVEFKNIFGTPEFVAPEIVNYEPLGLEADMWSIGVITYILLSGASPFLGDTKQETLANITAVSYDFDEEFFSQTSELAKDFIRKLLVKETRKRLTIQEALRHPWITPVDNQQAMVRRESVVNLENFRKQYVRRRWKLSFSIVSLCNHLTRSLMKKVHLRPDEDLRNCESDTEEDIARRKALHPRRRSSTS

Compound | residual activity [1] | residual activity [2] | residual activity [3] | residual activity [4] | residual activity [5] | residual activity [6] | residual activity [7] | residual activity [8] | residual activity [9] | residual activity [10] | residual activity [11] | residual activity [12] | residual activity [13] | residual activity [14] | residual activity [15] | residual activity [16] | residual activity [17] | residual activity [18] | residual activity [19] | residual activity [20] | also measured
O=c1cc(N2CCOCC2)oc2c1ccc1ccccc12 | 102% | 115% | 112% | 98.5% | 102% | 97.4% | 92.5% | 96.1% | 86.8% | 95.9% | 101% | 95.5% | 103% | 102% | 102% | 87.6% | 107% | 100% | 97.7% | 107% | residual activity [21]: 106%; residual activity [22]: 111%; residual activity [23]: 107%; residual activity [24]: 106%; residual activity [25]: 92.3%; residual activity [26]: 100%; residual activity [27]: 104%; residual activity [28]: 105%; residual activity [29]: 95.4%; residual activity [30]: 88.5%; residual activity [31]: 94.4%; residual activity [32]: 95.7%; residual activity [33]: 96.9%; residual activity [34]: 119%; residual activity [35]: 108%; residual activity [36]: 98.2%; residual activity [37]: 100%
CC(=O)c1ccc(N2CCOCC2)cc1O | 102% | 106% | 108% | 96.6% | 99.4% | 96.7% | 96.5% | 94.8% | 97.7% | 94.7% | 111% | 90.2% | 102% | 93.9% | 93.9% | 100% | 101% | 101% | 98.6% | 107% | residual activity [21]: 108%; residual activity [22]: 105%; residual activity [23]: 104%; residual activity [24]: 103%; residual activity [25]: 94%; residual activity [26]: 99.3%; residual activity [27]: 104%; residual activity [28]: 106%; residual activity [29]: 95.1%; residual activity [30]: 90.7%; residual activity [31]: 101%; residual activity [32]: 90.9%; residual activity [33]: 96.1%; residual activity [34]: 94.8%; residual activity [35]: 108%; residual activity [36]: 99.4%; residual activity [37]: 100%
Cc1ccc(S(=O)(=O)/C=C/C#N)cc1 | 98.6% | 100% | 95% | 103% | 99% | 98% | 108% | 102% | 94.7% | 99.1% | 89.7% | 103% | 92% | 105% | 105% | 96.4% | 100% | 94.9% | 105% | 101% | residual activity [21]: 92.1%; residual activity [22]: 103%; residual activity [23]: 97.1%; residual activity [24]: 98.2%; residual activity [25]: 108%; residual activity [26]: 98%; residual activity [27]: 107%; residual activity [28]: 83.9%; residual activity [29]: 95.4%; residual activity [30]: 119%; residual activity [31]: 101%; residual activity [32]: 83.7%; residual activity [33]: 115%; residual activity [34]: 89.2%; residual activity [35]: 94.3%; residual activity [36]: 100%; residual activity [37]: 100%
CCN(CC)C(=O)c1ccc(Nc2nc(OCC3CCCCC3)c3nc[nH]c3n2)cc1 | 59.8% | 91.7% | 99.9% | 100% | 93.8% | 80.8% | 101% | 77.7% | 76.5% | 39.8% | 44.2% | 95.2% | 76.3% | 104% | 87.7% | 90.7% | 96.4% | 21.4% | 94.7% | 98.8% | residual activity [21]: 78.9%; residual activity [22]: 54.6%; residual activity [23]: 20.7%; residual activity [24]: 101%; residual activity [25]: 92.8%; residual activity [26]: 55.8%; residual activity [27]: 71.3%; residual activity [28]: 92.4%; residual activity [29]: 46.2%; residual activity [30]: 89.3%; residual activity [31]: 95.4%; residual activity [32]: 91.5%; residual activity [33]: 2.21%; residual activity [34]: 76.5%; residual activity [35]: 94.4%; residual activity [36]: 96.9%; residual activity [37]: 63.2%
COc1ccc2c(c[n+](C)c3c4cc5c(cc4ccc23)OCO5)c1OC | 96.8% | 93.9% | 94.9% | 98.5% | 99.3% | 91.8% | 104% | 109% | 104% | 92.5% | 89.9% | 95.9% | 89.6% | 100% | 96.6% | 84.8% | 96.6% | 101% | 95.3% | 93.2% | residual activity [21]: 101%; residual activity [22]: 93.5%; residual activity [23]: 93.5%; residual activity [24]: 108%; residual activity [25]: 94.9%; residual activity [26]: 85.1%; residual activity [27]: 96.5%; residual activity [28]: 92.6%; residual activity [29]: 91.1%; residual activity [30]: 107%; residual activity [31]: 97.2%; residual activity [32]: 90.8%; residual activity [33]: 104%; residual activity [34]: 88.9%; residual activity [35]: 90.1%; residual activity [36]: 114%; residual activity [37]: 108%
